In experiment [1] the target is T1, α-D-mannosidase of the rat epididymis origin (Rattus norvegicus, UniProt Q6P762).
T1 sequence (Q6P762 50-1009): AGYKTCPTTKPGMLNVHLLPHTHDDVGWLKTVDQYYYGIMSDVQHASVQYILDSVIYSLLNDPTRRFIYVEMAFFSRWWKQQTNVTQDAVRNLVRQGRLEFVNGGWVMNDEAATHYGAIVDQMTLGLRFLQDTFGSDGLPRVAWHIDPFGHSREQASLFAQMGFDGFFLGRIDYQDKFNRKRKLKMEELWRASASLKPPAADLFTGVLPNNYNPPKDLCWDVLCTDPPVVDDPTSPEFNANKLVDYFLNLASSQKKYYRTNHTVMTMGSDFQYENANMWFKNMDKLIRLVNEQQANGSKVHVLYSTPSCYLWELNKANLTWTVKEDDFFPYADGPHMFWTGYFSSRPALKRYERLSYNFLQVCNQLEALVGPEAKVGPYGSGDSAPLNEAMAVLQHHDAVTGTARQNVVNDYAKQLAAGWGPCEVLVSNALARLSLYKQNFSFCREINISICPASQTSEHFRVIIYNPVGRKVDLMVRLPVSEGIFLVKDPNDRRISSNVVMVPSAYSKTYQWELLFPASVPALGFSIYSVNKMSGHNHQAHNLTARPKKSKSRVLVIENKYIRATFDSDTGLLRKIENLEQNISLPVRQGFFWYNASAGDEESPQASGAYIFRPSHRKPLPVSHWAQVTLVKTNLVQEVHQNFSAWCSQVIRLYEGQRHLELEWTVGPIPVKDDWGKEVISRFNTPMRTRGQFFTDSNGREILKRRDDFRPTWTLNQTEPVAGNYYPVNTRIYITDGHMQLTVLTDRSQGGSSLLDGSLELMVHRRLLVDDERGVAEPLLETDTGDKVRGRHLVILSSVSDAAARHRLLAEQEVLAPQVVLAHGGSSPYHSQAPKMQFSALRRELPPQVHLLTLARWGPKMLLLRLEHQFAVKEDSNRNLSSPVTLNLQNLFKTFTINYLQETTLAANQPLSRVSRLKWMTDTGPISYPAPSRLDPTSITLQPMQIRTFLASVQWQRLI
Kind of experiment: α-D-mannosidase inhibitory activity, colorimetric, p-nitrophenyl-α-D-mannopyranoside substrate. The format is biochemical. The note with it: qualitative statement. The procedure: Assay of the compounds according to this invention is performed by measuring their α-D-mannosidase inhibitory activity. The activity of α-D-mannosidase is determined by colorimetrically measuring the amount of p-nitrophenol that has been liberated when p-nitrophenyl-α-D-mannopyranoside (Koch-Light Laboratories, England) as a substrate is hydrolyzed with α-D-mannosidase of the rat epididymis origin (a fraction obtained by precipitation with 20 - 80% ammonium sulfate at the Institute of Microbial Chemistry). Details of said procedure are as follows: p-Nitro-phenyl-α-D-mannopyranoside is dissolved in 50% methanol to make a 0.04M solution. To 0.05 ml of the 0.04M substrate solution are added 0.25 ml of a 0.1M acetate buffer (pH 4.5) and 0.15 ml of water or an aqueous solution containing the test compound. The mixture is heated at 37°C for 3 minutes, and 0.05 ml of -D-mannosidase is added. […] The reaction mixture is measured for the absorbance (A) at 400 nm. Separately, the control mixture comprising only water and being free from the aforesaid test compound solution is measured for the absorbance termed (b). The α-D-mannosidase inhibition rate (%) is calculated from the equation (b - a)/b x 100. […]

Experiment [2] relates to α-D-mannosidase of the leguminous plant origin. The note with it: qualitative, prior art; cited from earlier work.

Structures are written as SMILES. Entries after “also recorded” stand apart in the source; their conditions may differ.

In the case of `C[S+]([O-])C1C(N)C(O)C(O)C1O` (stereo not drawn) [mannostatin S-oxide], the “inhibition of α-D-mannosidase of the animal origin (rat epididymides), in words” value in experiment [1] was “stronghly inhibit; also recorded: strongly inhibit”.

Turning to `O[C@H]1[C@H]2[C@H](O)CCCN2C[C@H]1O` [Swainsonine], the “inhibition of α-D-mannosidase of the leguminous plant origin, in words” value in experiment [2] was “inhibits”.

With `CSC1C(N)C(O)C(O)C1O` (stereo not drawn) [mannostatin], the “inhibition of α-D-mannosidase of the animal origin (rat epididymides), in words” value in experiment [1] is “stronghly inhibit; also recorded: strongly inhibit”.

The values above are taken from patent EP0175291B1, “Novel alpha-D-mannosidase inhibitor” (MICROBIAL CHEMISTRY RESEARCH FOUNDATION, priority 1984, dated 1986).
